Results on two substances are retold here after patent publication US6444806B1, “Conjugates and methods of forming conjugates of oligonucleotides and carbohydrates” (Hisamitsu Pharmaceutical Co., Inc., priority 1996, dated 2002).

{Sucrose} = sucrose through a 1,5-bis(succinimidooxycarbonyloxy)pentane crosslinker

Series [1] in a line: Nuclease degradation assay in heat-inactivated 10% fetal bovine serum. The class given is in vitro ADME. As to conditions: phosphodiester oligonucleotides, up to 24 hours at 37° C. (FIG. 4). Here is the method: (§1) Electrophoresis was performed using 20% polyacrylamide gels containing […], 90 mM Tris-borate (pH 8.3), 2 mM EDTA, 0.02% ammonium persulfate, and 15 μl tetraethylediamine (TEMED). Samples were dissolved in gel-loading buffer (10 M urea, 1.5 mM EDTA, 0.05% xylene cyanol, and 0.05% bromophenol blue) and heated at 90° C. for 1 minute and chilled before application to polyacrylamide gels.
Radiolabeled oligonucleotide (30,000 CPM) was incubated in RPMI-1640 medium (GIBCO-BRL, Grand Island, N.Y.) containing 10% heat-inactivated fetal bovine serum at 37° C. Samples were removed at various times, mixed with gel-loading buffer, and frozen at −20 C. Samples were analyzed by polyacrylamide gel electrophoresis followed by autoradiography of the wet gel at −70° C.

The subject of series [2] is RNA complementary to the oligonucleotide. Kind of series: RNase H assay (RNA-DNA heteroduplex formation). The class given is biochemical. The following applies: Escherichia coli RNase H, 10 or 30 minutes, room temperature (FIG. 6). How it is done: Radiolabeled oligonucleotide (30,000 CPM) was annealed to complementary RNA by incubation in 20 mM Tris-HCl (pH 7.5), 0.1 M KCl, 10 mM MgCl2, and 0.1 mM ATP in 10 μl for 5 minutes at 65° C. followed by slow cooling to room temperature. One unit of Escherichia coli RNase H was added and incubation at room temperature was continued for either 10 minutes or 30 minutes. After incubation, 5 μl of gel-loading buffer were added, and all samples were analyzed by polyacrylamide gel electrophoresis followed by autoradiography of the wet gel at −70° C.
Unconjugated and sucrose-conjugated phosphodiester and phosphorothioate oligonucleotides were tested for their ability to form stable RNA-DNA heteroduplexes by determining RNA susceptibility to degradation by RNase H. RNA complementary to the oligonucleotide was labeled at the 5′-end using γ-^32P-ATP and T4 polynucleotide kinase. Radiolabeled RNA was hybridized to either unconjugated phosphodiester, sucrose-conjugated phosphodiester, unconjugated phosphorothioate, or sucrose-conjugated phosphorothioate oligonucleotide. Heteroduplex formation was assayed by incubation with RNase H for either 10 minutes or 30 minutes.

For another series, the target named is T1, Exonuclease-1 (Escherichia coli, UniProt P04995).
T1 sequence (P04995 1-475): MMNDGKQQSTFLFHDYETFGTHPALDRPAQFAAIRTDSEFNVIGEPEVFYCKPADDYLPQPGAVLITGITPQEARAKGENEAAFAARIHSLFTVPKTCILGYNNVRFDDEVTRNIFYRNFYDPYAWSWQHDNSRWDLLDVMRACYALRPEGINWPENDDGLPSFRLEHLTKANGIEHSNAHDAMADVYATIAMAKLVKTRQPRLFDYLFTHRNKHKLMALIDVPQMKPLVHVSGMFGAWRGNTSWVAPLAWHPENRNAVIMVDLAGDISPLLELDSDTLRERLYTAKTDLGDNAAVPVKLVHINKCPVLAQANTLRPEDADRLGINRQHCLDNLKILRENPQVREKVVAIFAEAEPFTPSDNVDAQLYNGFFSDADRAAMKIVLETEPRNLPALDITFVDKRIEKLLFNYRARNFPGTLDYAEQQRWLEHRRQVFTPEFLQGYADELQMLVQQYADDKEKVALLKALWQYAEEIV
The class given is in vitro ADME. The following applies: 0.5 or 1.0 unit Exonuclease-1, 30 minutes at 37° C., gel autoradiography (FIG. 3). Here is the method:
as §1
Radiolabeled oligonucleotide (30,000 CPM) was incubated with either 0.5 or 1.0 unit of Exonuclease-1 in 67 mM glycine (pH 9.5), 10 mM 2-mercaptoethanol, and 6.7 mM MgCl2 in 20 μl for 30 minutes at 37° C. After incubation, 5 μl of gel-loading buffer were added. All reactions were analyzed by polyacrylamide gel electrophoresis followed by autoradiography of the wet gel at −70° C.

Consider “sucrose-conjugated phosphodiester oligonucleotide: 19-mer phosphodiester oligonucleotide (Sequence ID No. 1) coupled at 3′-end to sucrose via crosslinker 1,5-bis(succinimidooxycarbonyloxy)pentane (GCTTCTGTGCTCATGGTCT; all phosphodiester, 3' {Sucrose}, sugars by position and methylation of C not given here; further chemistry not fully specified)”, for which the “degradation in heat-inactivated 10% fetal bovine serum” value in series [1] was “relatively resistant to degradation”. Besides, the “RNA susceptibility to degradation by RNase H (stable RNA-DNA heteroduplex formation)” value in series [2] is “degraded by RNase H”. Further, in the series with Exonuclease-1, the “degradation by Exonuclease-1” value is on record as “only negligible degradation”.

As to “unconjugated phosphodiester oligonucleotide: phosphodiester oligonucleotide, 19 nucleotides in length, sequence of Sequence ID No. 1, unconjugated control (GCTTCTGTGCTCATGGTCT; all phosphodiester, sugars by position and methylation of C not given here)”, the “degradation in heat-inactivated 10% fetal bovine serum” value in series [1] is recorded as “highly susceptible to degradation”. Also, the “RNA susceptibility to degradation by RNase H (stable RNA-DNA heteroduplex formation)” value in series [2] was “degraded by RNase H”. In the series with Exonuclease-1, the “degradation by Exonuclease-1” value is listed as “degraded nearly completely”.
